Key:
HER2 WT = molecular target: T1, HER2 WT (Homo sapiens, UniProt P04626); test: Enzymatic assay HER2 WT (method a); format: biochemical; settings: [HER2 WT]=12.5 nM, [ATP]=25 μM, [Peptide 22]=1 μM
T1 construct: purchased ProQinase, Freiburg, Germany ERBB2 0108-0000-1
Experimental: A 2× stock solution of HER2 WT (ERBB2 0108-0000-1; ProQinase, Freiburg, Germany) corresponding to method a, was prepared as described below. Alternatively, a 2× stock solution of HER2YVMA (custom purification; Viva biotech, Shanghai, China) corresponding to method b, was prepared as described below. For method c, a 2× stock of EGFR (ERBB1 PR7295B, Thermo Fisher, Carlsbad, CA) was prepared as described below. All 2× solutions were prepared in buffer containing 50 mM HEPES, pH 7.5, 10 mM MnCl2, MgCl2, 0.005% Tween 20, 1 mM TCEP. 25 ul of 2× enzyme solution was added to a Seahorse low volume 384-well polypropylene assay plate (201288-100, Seahorse Bioscience, Chicopee, MA) containing 1 μl of compound serially diluted in 50% DMSO. To initiate the reaction, 25 μl of solution containing 2× final concentration of ATP and ProfilerPro Peptide 22 (760366, Perkin Elmer Hopkinton, MA) was added to each well. The reactions were separated on an LC3000 (Caliper Life Sciences) or a LabChip EZReader (Perkin Elmer) in kinetic mode.
At the conclusion of each assay, the data were exported from the instrument as a .rda file (LC3000) and processed in proprietary software, EZReviewer, which determines the percent of substrate converted to product within a given cycle as (P/P+S)*100 by measuring the amplitude of substrate and product peaks. Cycle time varied with amount of compounds tested between 8 and 12 cycles. Initial velocity (0-3600 s) from each reaction was determined from the slope of a plot of percent conversion at each cycle versus time (seconds). Percent inhibition was determined by dividing the slope of each reaction by the uninhibited control using 100*(1-(x/uninhibited control)). IC50 estimates were obtained by plotting the concentration of inhibitor versus percent inhibition in GraphPad Prism (GraphPad Software, San Diego, CA) using log[inhibitor] versus Response (Variable Slope Model); Y=Min+((Max-Min)/(1+((IC50/x)^Hillslope)))
• a) [HER2 WT]=12.5 nM, [ATP]=25 μM, [Peptide 22]=1 μM (ATP KMapp˜25 μM) • b) [HER2YVMA]=5 nM, [ATP]=25 μM, [Peptide 22]=1 μM (ATP KMapp˜15 μM) • c) [EGFR WT]=2 nM, [ATP]=1 mM, [Peptide 22]=1 μM (ATP KMapp˜25 μM)

[1] = molecular target: T2, HER2 wildtype (WT) protein (Homo sapiens, UniProt P04626); test: HER2 signaling (pHER2 Tyr1248/total HER2 MSD) in BT474 cells; format: cell-based; settings: 1.5 hr compound, 1% FBS
T2 construct: BT474 and N87 cell lines which endogenously overexpress the HER2 wildtype (WT) protein; endogenous in cells; host or cells: BT474, N87
Experimental: In addition to the engineered cell lines, the following cell lines were used: BT474 (human breast carcinoma), N87 (human gastric carcinoma), NCI-H1781 (human lung adenocarcinoma), and A431 (human epidermoid carcinoma); all cell lines were obtained from the American Type Culture Collection (ATCC, Manassas, VA). NCI-H1781 were grown in complete RPMI 1640 (Life Technologies, Carlsbad, CA) supplemented with 15% fetal bovine serum (FBS, Life Technologies, Carlsbad, CA) and 1% Penicillin-Streptomycin (P/S, Life Technologies, Carlsbad, CA). N87 cells were grown in complete RPMI 1640 supplemented with 10% FBS and 1% P/S. BT474 and A431 cells were grown in DMEM (Life Technologies, Carlsbad, CA) supplemented with 10% FBS and 1% P/S. All cells were maintained and propagated in a humidified 5% CO2 incubator at 37° C.
HER2 signaling was assessed in BT474 and N87 cell lines which endogenously overexpress the HER2 wildtype (WT) protein, in NCI-H1781 cells which endogenously expresses a HER2 mutant protein containing a VC insertion in the kinase domain (HER2VC or G776delinsVC), and in engineered cell lines transduced to express the Her2 mutant protein containing the YVMA insertion (Hek293-HER2YVMA and BEAS2B-HER2YVMA).
BT474, N87, and NCI-H1781 were plated in 96-well tissue-culture treated plates (Corning Costar, Sigma-Aldrich) in full media and incubated overnight. Hek293-HER2YVMA and BEAS2B-HER2YVMA cells were plated in 96-well poly-D-lysine treated plates (BD Bioscience, San Jose, CA). For treatment with test compounds, the media was replaced with corresponding low serum media (1% FBS) containing test compound at 1.1, 0.37, 0.12, 0.041, 0.014, 0.005, 0.0014, 0.0005 μM or DMSO control (0.1%). Cells were incubated with compound for 1.5 hr at 37° C. After compound treatment, the media was removed and cells were lysed for 30 min on ice in complete MSD lysis buffer (prepared using MSD base lysis buffer (Meso-Scale Discovery) supplemented with cOmplete, EDTA-free Protease inhibitor cocktail (Roche), Phosphatase Inhibitor Cocktails 2 and 3 (Sigma-Aldrich), and 1 mM PMSF (Sigma-Aldrich)). Lysates were stored at −70° C. until further analysis.
HER2 signaling was evaluated using phospho (Tyr1248)/total ErbB2 whole cell lysate MSD plates (Meso-Scale Discovery, Gaithersburg, MD). The phospho HER2 signal was normalized to total HER2 for each sample; results are reported as % DMSO control. The normalized data was fitted using a sigmoidal curve analysis program (Graph Pad Prism version 6) with variable Hill slope to determine EC50 values.
The HER2 signaling results are provided in Table 4, under columns titled “BT474-pHER2 EC50”, “N87-pHER2 EC50”, and “NCI-H1781-pHER2 EC50”. Hek293-HER2YVMA ins fall under the heading “HEKYVMA-pHER2 EC50”, Ba/F3 HER2YVMA fall under the heading “Ba/F3 YVMA-pHER2 EC50” and BEAS2B-HER2YVMA fall under the heading “BEAS2B YVMA-pHER2 EC50”.

T1 sequence (P04626 23-1255): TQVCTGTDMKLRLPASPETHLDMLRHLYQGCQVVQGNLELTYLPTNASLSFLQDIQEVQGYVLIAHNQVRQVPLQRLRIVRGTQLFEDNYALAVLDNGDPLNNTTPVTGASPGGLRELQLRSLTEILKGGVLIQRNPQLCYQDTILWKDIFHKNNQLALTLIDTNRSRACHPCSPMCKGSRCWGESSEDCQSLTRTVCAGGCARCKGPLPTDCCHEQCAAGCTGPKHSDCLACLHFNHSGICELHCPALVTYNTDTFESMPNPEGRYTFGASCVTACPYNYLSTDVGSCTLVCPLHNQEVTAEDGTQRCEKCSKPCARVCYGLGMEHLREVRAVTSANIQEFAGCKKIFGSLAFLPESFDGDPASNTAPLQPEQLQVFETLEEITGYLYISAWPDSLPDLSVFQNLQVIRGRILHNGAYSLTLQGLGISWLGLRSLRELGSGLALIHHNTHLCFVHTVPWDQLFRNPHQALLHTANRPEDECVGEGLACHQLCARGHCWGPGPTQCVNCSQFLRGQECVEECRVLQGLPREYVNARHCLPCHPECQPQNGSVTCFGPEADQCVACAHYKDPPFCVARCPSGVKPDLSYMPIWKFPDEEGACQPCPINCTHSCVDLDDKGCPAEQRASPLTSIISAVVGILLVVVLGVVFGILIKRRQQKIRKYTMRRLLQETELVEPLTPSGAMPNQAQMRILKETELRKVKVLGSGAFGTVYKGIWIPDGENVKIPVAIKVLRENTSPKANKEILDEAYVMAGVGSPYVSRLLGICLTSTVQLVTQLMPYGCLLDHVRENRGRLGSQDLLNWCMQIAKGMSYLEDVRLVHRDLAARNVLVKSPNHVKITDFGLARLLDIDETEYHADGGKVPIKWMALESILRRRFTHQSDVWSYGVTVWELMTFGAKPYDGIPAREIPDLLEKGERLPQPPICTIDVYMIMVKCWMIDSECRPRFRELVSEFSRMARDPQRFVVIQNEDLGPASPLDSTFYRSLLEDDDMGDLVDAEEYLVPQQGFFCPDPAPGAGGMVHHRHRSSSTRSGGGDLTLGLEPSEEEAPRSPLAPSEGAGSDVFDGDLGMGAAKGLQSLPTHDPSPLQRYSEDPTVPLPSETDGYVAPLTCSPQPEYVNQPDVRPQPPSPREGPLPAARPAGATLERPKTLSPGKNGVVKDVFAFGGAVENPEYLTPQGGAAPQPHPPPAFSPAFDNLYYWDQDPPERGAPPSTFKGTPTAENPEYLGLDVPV
T2 sequence (P04626 23-1255): as above

| IC50 (HER2 WT) [nM] | EC50 [1] [nM] | Structure (SMILES) |
| --- | --- | --- |
| < 100 | < 100 | Cc1ccc(Oc2ccc(Nc3ncnc4sc5c(c34)C[C@@H](C)N(C(=O)/C=C/CN(C)C)[C@H]5C)cc2C)cn1 (racemic) [Compound 149, (E)-1-(6,8-cis-dimethyl-4-((3-methyl-4-((6-methylpyridin-3-yl)oxy)phenyl)amino)-5,8-dihydropyrido[4′,3′:4,5]thieno[2,3-d]pyrimidin-7(6H)-yl)-4-(dimethylamino)but-2-en-1-one] |
| 100 to 1000 | < 100 | Cc1ccc(Oc2ccc(Nc3ncnc4sc5c(c34)C[C@@H](C)N(C(=O)/C=C/CN(C)C)[C@@H]5C)cc2C)cn1 (racemic) [Compound 165, (E)-1-(6,8-trans-dimethyl-4-((3-methyl-4-((6-methylpyridin-3-yl)oxy)phenyl)amino)-5,8-dihydropyrido[4′,3′:4,5]thieno[2,3-d]pyrimidin-7(6H)-yl)-4-(dimethylamino)but-2-en-1-one] |
| 100 to 1000 | < 100 | C=CC(=O)N1[C@H](C)Cc2c(sc3ncnc(Nc4ccc(Oc5ccc(C)nc5)c(C)c4)c23)[C@H]1C (racemic) [Compound 166, 1-(6,8-trans-dimethyl-4-((3-methyl-4-((6-methylpyridin-3-yl)oxy)phenyl)amino)-5,8-dihydropyrido[4′,3′:4,5]thieno[2,3-d]pyrimidin-7(6H)-yl)prop-2-en-1-one] |
| < 100 | < 100 | Cc1ccc(Oc2ccc(Nc3ncnc4sc5c(c34)C(C)N(C(=O)C=CCN(C)C)C5)cc2C)cn1 (single isomer, unassigned) [Compound 147] |
| 1000 to 10000 | 100 to 350 | Cc1ccc(Oc2ccc(Nc3ncnc4sc5c(c34)C(C)N(C(=O)C=CCN(C)C)C5)cc2C)cn1 (single isomer, unassigned) [Compound 148] |
| < 100 | < 100 | Cc1ccc(Oc2ccc(Nc3ncnc4sc5c(c34)CC(C)N(C(=O)C=CCN(C)C)C5C)cc2C)cn1 (single isomer, unassigned) [Compound 161] |
| 1000 to 10000 | 100 to 350 | Cc1ccc(Oc2ccc(Nc3ncnc4sc5c(c34)CC(C)N(C(=O)C=CCN(C)C)C5C)cc2C)cn1 (single isomer, unassigned) [Compound 162] |
| < 100 | < 100 | Cc1ccc(Oc2ccc(Nc3ncnc4sc5c(c34)CN(C(=O)C=CCN(C)C)C5C)cc2C)cn1 (single isomer, unassigned) [Compound 169] |
| 1000 to 10000 | 350 to 1000 | Cc1ccc(Oc2ccc(Nc3ncnc4sc5c(c34)CN(C(=O)C=CCN(C)C)C5C)cc2C)cn1 (single isomer, unassigned) [Compound 170] |

Continued, compound first:

| Structure (SMILES) | IC50 (HER2 WT) [nM] | EC50 [1] [nM] |
| --- | --- | --- |
| C=CC(=O)N1Cc2sc3ncnc(Nc4ccc(Oc5ccc(C)nc5)c(C)c4)c3c2C(C)C1 (single isomer, unassigned) [Compound 145] | < 100 | < 100 |
| C=CC(=O)N1Cc2sc3ncnc(Nc4ccc(Oc5ccc(C)nc5)c(C)c4)c3c2C(C)C1 (single isomer, unassigned) [Compound 146] | < 100 | < 100 |
| COc1ccc(Oc2ccc(Nc3ncnc4sc5c(c34)C(C)CN(C(=O)C=CCN(C)C)C5)cc2C)cn1 (single isomer, unassigned) [Compound 159] | 100 to 1000 | < 100 |
| COc1ccc(Oc2ccc(Nc3ncnc4sc5c(c34)C(C)CN(C(=O)C=CCN(C)C)C5)cc2C)cn1 (single isomer, unassigned) [Compound 160] | < 100 | < 100 |
| Cc1ccc(Oc2ccc(Nc3ncnc4sc5c(c34)C(C)CN(C(=O)C=CCN3CCOCC3)C5)cc2C)cn1 (single isomer, unassigned) [Compound 176] | 100 to 1000 | < 100 |
| Cc1ccc(Oc2ccc(Nc3ncnc4sc5c(c34)C(C)CN(C(=O)C=CCN3CCOCC3)C5)cc2C)cn1 (single isomer, unassigned) [Compound 177] | < 100 | < 100 |
| Cc1ccc(Oc2ccc(Nc3ncnc4sc5c(c34)C(C)CN(C(=O)C=CCN(C)C(C)(C)C)C5)cc2C)cn1 (single isomer, unassigned) [Compound 178] | 100 to 1000 | < 100 |
| Cc1ccc(Oc2ccc(Nc3ncnc4sc5c(c34)C(C)CN(C(=O)C=CCN(C)C(C)(C)C)C5)cc2C)cn1 (single isomer, unassigned) [Compound 179] | < 100 | < 100 |
| C=CC(=O)N1CCc2c(sc3ncnc(Nc4ccc(Oc5cccnc5)c(Cl)c4)c23)C1 [Compound 6, 1-(4-((3-chloro-4-(pyridin-3-yloxy)phenyl)amino)-5,8-dihydropyrido[4′,3′:4,5]thieno[2,3-d]pyrimidin-7(6H)-yl)prop-2-en-1-one] | < 100 | < 100 |
| COc1cc(Nc2ncnc3sc4c(c23)CCN(C(=O)/C=C/CN(C)C)C4)ccc1Oc1ccccc1 [Compound 7, (E)-4-(dimethylamino)-1-(4-((3-methoxy-4-phenoxyphenyl)amino)-5,8-dihydropyrido[4′,3′:4,5]thieno[2,3-d]pyrimidin-7(6H)-yl)but-2-en-1-one] | < 100 | < 100 |
| Cc1ccc(Oc2ccc(Nc3ncnc4sc5c(c34)CCN(C(=O)/C=C/CN(C)C)C5)cc2C)cn1 [Compound 8, (E)-4-(Dimethylamino)-1-(4-((3-methyl-4-((6-methylpyridin-3-yl)oxy)phenyl)amino)-5,6-dihydropyrido[4′,3′:4,5]thieno[2,3-d]pyrimidin-7(8H)-yl)but-2-en-1-one] | < 100 | < 100 |
| C=CC(=O)N1CCc2c(sc3ncnc(Nc4ccc(Oc5cccnc5)c(C)c4)c23)C1 [Compound 11, 1-(4-((3-methyl-4-(pyridin-3-yloxy)phenyl)amino)-5,8-dihydropyrido[4′,3′:4,5]thieno[2,3-d]pyrimidin-7(6H)-yl)prop-2-en-1-one] | < 100 | < 100 |
| Cc1cc(Nc2ncnc3sc4c(c23)CCN(C(=O)/C=C/CN2CCOCC2)C4)ccc1Oc1ccc2ncnn2c1 [Compound 12] | < 100 | < 100 |
| Cc1ccc(Oc2ccc(Nc3ncnc4sc5c(c34)CCN(C(=O)/C=C/CN3CC4CCC(C3)O4)C5)cc2C)cn1 [Compound 13] | < 100 | < 100 |

— US20240391931A1 (Bristol-Myers Squibb Company, priority 2021, published 2024)
